This note sets out measurements from patent US4193997A, “Thieno[2,3-c] and [3,2-c]pyridines, process for their preparation and therapeutic applications thereof” (Parcor, priority 1977, dated 1980).

Assay [1] deals with mice. Nature of the assay: Antalgic action, acetic acid method according to Koster, Anderson & de Beer. In kind it is in vivo. The note with it: 100 mg/kg oral, 30 minutes prior to i.p. acetic acid. An excerpt:
(b) Acetic acid method, according to Koster, Anderson & de Beer (Fed. Proced., 18, 1959, 412, 1, 626)
Intraperitoneal injection of a dilute acetic acid solution induces, in mice, characteristic writhing movements which are repeated due to the effect of pain.

In assay [2] the test system is ovalbumin-induced systemic edema. Nature of the assay: Ovalbumin-induced systemic edema method. The settings on record: rats, 100 mg/kg oral one hour before and with ovalbumin. The class given is in vivo. The method, then:
Rats are administered a simultaneous intraperitoneal injection of 1 ml ovalbumin and 0.5 ml of a 1% aqueous Evans Blue solution. The animals of the treated group are additionally orally administered 100 mg/kg of the test derivative, one hour prior to ovalbumin administration and then simultaneously with said ovalbumin administration. The intensity of the phenomenon thus induced is rated according to a scale from 1 to 5, according to the progress of the inflammatory syndrome. The determinations are effected after 2 hours and after 3 hours. Thus are determined the mean intensity of the edema and the percent decrease of the edema reaction.

Assay [3] concerns A.D.P.-induced blood-platelet aggregation. Description: A.D.P.-induced blood-platelet aggregation after oral treatment of rats. In kind it is in vivo, Wistar rats. The note with it: Rattus norvegicus, 100 mg/kg oral, 3 hrs after treatment, 10 μM A.D.P. solution, read-out: Percent inhibition of blood-platelet aggregation, A.D.P. The method, then: (§1) Blood is taken from the jugular vein of Wistar rats. From this citrated blood, and after centrifugation, a plasma containing 600,000±20,000 blood-platelets per mm 3 is reconstituted, which plasma is used in all aggregation determinations.
(§2) 0.4 ml plasma is placed in a siliconized tube provided with a magnet bar which is also siliconized. The tube is introduced into an aggregometer connected to an apparatus which records the optical density variations. When light transmission reaches a stable value, 0.5 ml of a solution containing 10 μM A.D.P. (adenosine diphosphate) is introduced into the tube.
Blood-platelet aggregation then induces an increase of light transmission, followed by a decrease subsequent to the disaggregation stage.
The maximal optical density variation thus determined characterizes the extent of the aggregation.
(§3) Different groups of 20 rats each are used. Each group is orally administered a test derivative, at a dosage of 100 mg/kg. The results obtained during both tests are reported in following Table I which indicates the percent inhibition of blood-platelet aggregation obtained with respect to the reference group, 3 hrs after treatment.

In assay [4] the test system is collagen-induced blood-platelet aggregation. Nature of the assay: Collagen-induced blood-platelet aggregation after oral treatment of rats. The class given is in vivo, Wistar rats. The settings on record: Rattus norvegicus, 100 mg/kg oral, 3 hrs after treatment, collagen (bovine tendon extract), read-out: Percent inhibition of blood-platelet aggregation, Collagen. How it is done:
as §1, §2
The A.D.P. solution is substituted with a collagen solution (bovine tendon extract).
as §3

For assay [5], the system named is mouse. Description: Antalgic action, mechanical stimulation method according to Haffner. In kind it is in vivo. The note with it: 100 mg/kg oral. How it is done:
(a) Mechanical stimulation method according to Haffner (Deutsch. Wish., 1959, 55, 731-733). This method comprises placing a pressure forceps at the base of the tail of a mouse and recording the number of bites self-inflicted by the animal in its endeavour to remove the forceps. The decrease of the number of bites prior and subsequent to oral administration of the test compound at a dosage of 100 mg/kg provides a measure of the antalgic activity of the derivatives of this invention.

Assay [6] has as its system carrageenin-induced edema. Nature of the assay: Localized carrageenin-induced edema method. The class given is in vivo. The note with it: rats, 100 mg/kg oral one hour before, with, and 1 and 2.5 hours after carrageenin. The method, then:
0.1 ml of a 1% carrageenin solution is injected at time O in the metatarsal flexor muscles of the right hind limb of rats.
The animals of the treated group are additionally orally administered 100 mg/kg of the test derivative, respectively one hour prior to, and then simultaneously with the phlogogenic agent, and then one hour and 2.5 hours thereafter. The determinations effected with a ROCH micrometer at times 0, 1 hr, 2 hrs, 3 hrs and 5 hrs after carrageenin administration make it possible to determine the percent anti-inflammatory activity, as a function of time.

The test system of assay [7] is Red blood cells. Nature of the assay: Anti-sludge in vitro, "curative" procedure (protamine sulfate agglomeration of red blood cells). In kind it is cell-based, rats. The settings on record: 25 μg; for percent aggregates, size of agglomerates 4: reference tests 11; for percent aggregates, size of agglomerates 3: reference tests 15 or 16; for percent aggregates, size of agglomerates 2: reference tests 19; for percent aggregates, size of agglomerates 1: reference tests 33 (n°3, 4, 6) or 30 (n°11, 12, 17). How it is done: (§4) Red blood cells of rats are washed three times and diluted to 1/250 concentration in physiological saline. In each of 5 tubes are placed 0.6 ml of this suspension and 0.2 ml physiological saline. Into each tube is then added, respectively, an amount of 0, 25, 50, 100 and 200 μg of the test derivative contained in 0.2 ml of solution. After incubation for one hour at 37° C., 0.2 ml of a solution containing 125 μg/ml protamine sulfate is added thereto, and the resulting material is further incubated for 0.5 hour at 37° C. The red blood cells of each tube are then examined with a Mallasez cell, and the percent free red blood cells (RBC) and the percent agglomerates formed by 2, 3, 4, 5 . . . RBC are noted.
The test was repeated according to a "curative" procedure. The red blood cells were first contacted with the protamine sulfate and, after incubation for 0.5 hour, 0.2 ml containing 25 μg of the test derivative were added thereto, after which the material was further incubated for one hour at 37° C.

Assay [8] has as its system Red blood cells. Description: Anti-sludge in vitro, "preventive" treatment (protamine sulfate agglomeration of red blood cells). In kind it is cell-based, rats. The note with it: for percent agglomerates formed by 5 RBC: controls 6 or 8; for percent agglomerates formed by 4 RBC: controls 9 or 8; for percent agglomerates formed by 3 RBC: controls 13 or 14; for percent agglomerates formed by 2 RBC: controls 17 or 16; for percent free red blood cells (size 1): controls 32 (n°3, 4, 6) or 30 (n°11, 12, 17). How it is done: as §4

The molecule `O=C1c2ccsc2CCN1Cc1ccccc1` [Derivative n°2, 4-Oxo-5-benzyl-4,5,6,7-tetrahydro-thieno[3,2-c]pyridine] returned a percent antalgia in assay [1] of 68%. In addition, the “Percent decrease of the edema reaction After 2 hours” value in assay [2] (after 2 hours) came to 42%. Moreover, the “Percent decrease of the edema reaction After 3 hours” value in assay [2] (after 3 hours) turned out to be 50%. For the same molecule, the inhibition at 100 mg/kg was determined as 61.5% in assay [3] and 91.2% in assay [4]. For the same molecule, in assay [5] (after 30 min.), the “mean percent antalgia after 30 min.” value was 71%. Moreover, in assay [5] (after 1 hr), the “mean percent antalgia after 1 hr” value stood at 65%. Moreover, the “mean percent antalgia after 2 hrs” value in assay [5] (after 2 hrs) turned out to be 58%. Also, the “mean percent antalgia after 3 hrs” value in assay [5] (after 3 hrs) is 51%. In addition, in assay [6] (after 1 hour), the “Percent anti-inflammatory activity after 1 hour” value amounted to 36%. Besides, the “Percent anti-inflammatory activity after 2 hours” value in assay [6] (after 2 hours) turned out to be 47%. Also, the “Percent anti-inflammatory activity After 3 hours” value in assay [6] (after 3 hours) was 53%.

Turning to `O=C1c2ccsc2CCN1Cc1ccc(Cl)cc1` [Derivative n°3, 4-Oxo-5-p.chlorobenzyl-4,5,6,7-tetrahydro-thieno[3,2-c]pyridine], the inhibition at 100 mg/kg in assay [3] is 60.8%. In assay [4], the inhibition at 100 mg/kg was 91.4%. Also, in assay [7], the “percent aggregates, size of agglomerates 4” value stood at 1%; the “percent aggregates, size of agglomerates 3” value was 5%; the “percent aggregates, size of agglomerates 2” value is given as 13%; the “percent aggregates, size of agglomerates 1” value was found to be 81%. Moreover, in assay [8] (25 μg per tube), the “percent agglomerates formed by 5 RBC” value is given as 1%, the “percent agglomerates formed by 4 RBC” value turned out to be 2%, the “percent agglomerates formed by 3 RBC” value was 10% and the “percent agglomerates formed by 2 RBC” value is listed as 24%. The “percent free red blood cells (size 1)” value in assay [8] (25 μg per tube) is listed as 63%. Moreover, in assay [8] (50 μg per tube), the “percent agglomerates formed by 4 RBC” value was 2%, the “percent agglomerates formed by 3 RBC” value came out at 7%, the “percent agglomerates formed by 2 RBC” value was determined as 25% and the “percent free red blood cells (size 1)” value is reported as 66%. For the same molecule, in assay [8] (100 μg per tube), the “percent agglomerates formed by 5 RBC” value is reported as 1%, the “percent agglomerates formed by 4 RBC” value came to 1%, the “percent agglomerates formed by 3 RBC” value was 6% and the “percent agglomerates formed by 2 RBC” value is reported as 15%. Moreover, the “percent free red blood cells (size 1)” value in assay [8] (100 μg per tube) is 77%. Further, in assay [8] (200 μg per tube), the “percent agglomerates formed by 4 RBC” value came out at 1%, the “percent agglomerates formed by 3 RBC” value worked out at 1%, the “percent agglomerates formed by 2 RBC” value worked out at 10% and the “percent free red blood cells (size 1)” value was determined as 88%.

For the molecule `O=C1c2sccc2CCN1Cc1ccccc1Cl` [Derivative n°4, 6-o.Chlorobenzyl-7-oxo-4,5,6,7-tetrahydro-thieno[2,3-c]-pyridine], in assay [3], the inhibition at 100 mg/kg came to 62.9%. The inhibition at 100 mg/kg in assay [4] came to 93.1%. In assay [7] (reference tests 8 or 9), the “percent aggregates, size of agglomerates 5” value worked out at 1%. In addition, in assay [7], the “percent aggregates, size of agglomerates 4” value worked out at 1%; the “percent aggregates, size of agglomerates 3” value is on record as 3%; the “percent aggregates, size of agglomerates 2” value worked out at 17%; the “percent aggregates, size of agglomerates 1” value amounted to 78%. Further, in assay [8] (25 μg per tube), the “percent agglomerates formed by 5 RBC” value is 2%, the “percent agglomerates formed by 4 RBC” value is reported as 3%, the “percent agglomerates formed by 3 RBC” value amounted to 7% and the “percent agglomerates formed by 2 RBC” value was found to be 20%. Besides, the “percent free red blood cells (size 1)” value in assay [8] (25 μg per tube) is 68%. For the same molecule, in assay [8] (50 μg per tube), the “percent agglomerates formed by 5 RBC” value was determined as 1%, the “percent agglomerates formed by 4 RBC” value is 2%, the “percent agglomerates formed by 3 RBC” value is given as 4% and the “percent agglomerates formed by 2 RBC” value is recorded as 22%. In assay [8] (50 μg per tube), the “percent free red blood cells (size 1)” value stood at 71%. In assay [8] (100 μg per tube), the “percent agglomerates formed by 4 RBC” value is listed as 2%, the “percent agglomerates formed by 3 RBC” value was determined as 1%, the “percent agglomerates formed by 2 RBC” value is reported as 17% and the “percent free red blood cells (size 1)” value is on record as 80%. Further, in assay [8] (200 μg per tube), the “percent agglomerates formed by 3 RBC” value amounted to 1%, the “percent agglomerates formed by 2 RBC” value is 8% and the “percent free red blood cells (size 1)” value is on record as 91%.

For the molecule `O=C(c1ccccc1Cl)N1CCc2sccc2C1=O` [Derivative n°6, 4-Oxo-5-o.chlorobenzoyl-4,5,6,7-tetrahydro-thieno[3,2-c]pyridine], the inhibition at 100 mg/kg in assay [3] was determined as 61.7%. The inhibition at 100 mg/kg in assay [4] was found to be 91.5%. Also, in assay [7], the “percent aggregates, size of agglomerates 4” value is 2%; the “percent aggregates, size of agglomerates 3” value is given as 2%; the “percent aggregates, size of agglomerates 2” value stood at 15%; the “percent aggregates, size of agglomerates 1” value was 81%. For the same molecule, in assay [8] (25 μg per tube), the “percent agglomerates formed by 5 RBC” value is 4%, the “percent agglomerates formed by 4 RBC” value turned out to be 5%, the “percent agglomerates formed by 3 RBC” value worked out at 4% and the “percent agglomerates formed by 2 RBC” value was determined as 22%. In addition, the “percent free red blood cells (size 1)” value in assay [8] (25 μg per tube) is reported as 65%. In addition, in assay [8] (50 μg per tube), the “percent agglomerates formed by 5 RBC” value is 1%, the “percent agglomerates formed by 4 RBC” value is 3%, the “percent agglomerates formed by 3 RBC” value is 5% and the “percent agglomerates formed by 2 RBC” value stood at 25%. The “percent free red blood cells (size 1)” value in assay [8] (50 μg per tube) was determined as 66%. In assay [8] (100 μg per tube), the “percent agglomerates formed by 5 RBC” value came to 1%, the “percent agglomerates formed by 4 RBC” value is 0%, the “percent agglomerates formed by 3 RBC” value amounted to 3% and the “percent agglomerates formed by 2 RBC” value turned out to be 13%. Besides, the “percent free red blood cells (size 1)” value in assay [8] (100 μg per tube) is reported as 83%. Further, in assay [8] (200 μg per tube), the “percent agglomerates formed by 3 RBC” value amounted to 1%, the “percent agglomerates formed by 2 RBC” value came out at 8% and the “percent free red blood cells (size 1)” value worked out at 91%.
